From paper PMC6656724 (Communications Biology, 2019)
≈ marks a conversion by molar mass, not a printed value. Read-outs that look alike come from different tables or passages of the source.

Experiments:
[1] = target: T1, Pseudomonas fluorescens KMO (PfKMO) (Pseudomonas fluorescens, UniProt Q84HF5, C252S/C461S); assay: biochemical
T1 construct: made in house; host or cells: E. coli BL21 (DE3)
Excerpt: (§1) A combination of ligand- and structural-based virtual screening approaches (see supporting information for details) was used to identify an initial library of >1000 compounds that may be suitable as potential KMO inhibitors. These compounds were screened for inhibition of Pseudomonas fluorescens KMO (PfKMO) and Homo sapiens KMO (HsKMO) using high-throughput assays by monitoring the time-dependent oxidation of NADPH at 340 nm[23].
(§2) Small-molecule compounds were supplied by Biofocus (Charles River Laboratories International Inc., MA, USA), which were identified in silico as potential inhibitors (further details are described in the Supplementary Methods). Initial inhibition assays were performed against Pseudomonas fluorescens KMO (PfKMO) and Homo sapiens KMO (HsKMO) by monitoring the time-dependent absorbance change of NADPH at 340 nm. Purified KMO protein (200 nM) was incubated in 100 µL reaction buffer (20 mM potassium phosphate pH 8.0, 7 mM 2-mercaptoethanol) containing 100 μM NADPH, 100 μM L-Kyn and 20 μM potential inhibitors in 96-well plates. […] The inhibitors identified in the initial screens were validated and re-assayed individually in a 1 cm path-length quartz micro cuvette. […] Suppliers for target inhibitor compounds are listed in Supplementary Table 11.
(§3) Supplementary Figure 1. Examples of inhibition data used to generate IC50 values for selected KMO inhibitors. Fixed concentration of L -KYN (200 µM) and NADPH (100µM) were added into reaction buffer (HsKMO: 20mM potassium phosphate pH 8.0, 7 mM 2-mercaptoethanol; PfKMO: 20 mM HEPES, 10mM sodium acetate, pH 7.5, 2mM DTT). The reaction was initiated by the addition of KMO enzyme (HsKMO: 0.5µM; PfKMO: 0.1 µM). KMO activity was measured in the presence of a range of inhibitor concentrations. […]
(§4) 3.5 Steady-state enzymatic assays.
(§5) Initial screening assays and determination of IC50 values for each potential inhibitor compound were carried out using either 0.1 µM PfKMO or 0.5 µM HsKMO at fixed […]
(§6) (HsKMO: 20 mM potassium phosphate pH 8.0, 7 mM 2-mercaptoethanol; PfKMO:
(§7) 20 mM HEPES, 10 mM sodium acetate, pH 7.5, 2 mM DTT). KMO activity was measured in the presence of a range of inhibitor concentrations by monitoring the […]
consumption of NADPH at 340 nm upon addition of enzyme via a Cary 50 UV-Vis spectrophotometer (Agilent Technologies). Rates were determined from linear regression fits to the initial linear portion of the curves. All measurements were performed in triplicate. The IC50 values for inhibitors were obtained by plotting the percentage inhibition versus the inhibitor concentration and fitting to the Morrison equation16 (equation 1) using Origin 9.0 Software (OriginLab, Northampton, MA). […]

[2] = Mouse brain penetration study; assay type: in vivo, female C57BL6 mice; settings: mouse
Protocol: Inhibitor 1 (and prodrugs 1a, 1b, 1c and 1d) was dosed as a bolus solution intravenously at 1 mg free base/kg (dose volume: 5 mL/kg; dose vehicle: 5% DMSO; 95% saline (inhibitor 1) or 5% DMSO; 40% PEG400; 55% MilliQ H2O (prodrugs 1a, 1b, 1c and 1d)) to female C57BL6 mice (n = 6). At 5 min and 60 min following intravenous bolus injection of test compound, mice (n = 3/timepoint) were placed under terminal anaesthesia with isofluorane. A blood sample was taken by cardiac puncture, the […] decapitated and the brain removed. Brain weight was noted and each brain homogenised with two volumes of methanol (2 mL/g brain). Each blood sample was diluted with distilled water (1:10). Diluted blood and the brain homogenates were then stored frozen until preparation and analysis by UPLC-MS/MS. For each mouse at each timepoint for 1, the concentration in brain (ng/g) was divided by the concentration in blood (ng/mL) to give a brain:blood ratio. The mean value obtained was quoted. For prodrugs 1a to 1d, only the concentration of 1 in blood (ng/mL) and brain (ng/g) was reported.
A rapid and sensitive ultra-performance chromatography/tandem mass spectrometry (UPLC-MS/MS) method was developed and validated for the determination of inhibitor 1 and prodrug 1b (rat only). Chromatographic analysis was conducted on a Waters Acquity™ UPLC system. Chromatographic separation was performed with an Acquity™ UPLC BEH C18 column (50 × 2.1 mm, 1.7 µm, 130Å; Waters Corp.) maintained at 40 °C in a column oven. The mobile phase consisted of water with 0.01% formic acid and ACN with 0.01 % formic acid and it was delivered at a flow rate of 0.6 mL/min under gradient eluent conditions within an analysis cycle time of 3 min. The mass detection was conducted on a Waters Xevo™ TQs mass spectrometer equipped with a ScanWave™ technology. Quantitation of the analyte was performed in electrospray positive ionisation mode (ESI^+) using multiple reaction monitoring. The optimised fragmentation transition was m/z = 270.17 → 196.19 (mouse) or m/z = 270.17 → 223.76 (rat) for inhibitor 1 and m/z = 297.83 → 195.74 for prodrug 1b (rat).
Sample extraction for blood and brain homogenate was by protein precipitation (1:3 or 1:6) using ACN containing suitable internal standard. Extracts were vortexed followed by centrifugation (2800 rpm for 10 min). An aliquot of each supernatant was then diluted two-fold in distilled water ready for analysis by UPLC-MS/MS.
The weighted 1/x^2 calibration line was linear in the dynamic range of 1–5000 ng/mL for inhibitor 1 and 1–1000 ng/mL for prodrug 1b with a correlation coefficient (r^2) > 0.99 (inhibitor 1) or 0.98 (prodrug 1b). The quality control samples (QC) were prepared by using the same spiking scheme as the calibration samples and up to four different target concentration brain levels: 2 ng/mL (LQC), 40 ng/mL (MQC), 100 ng/mL (HQC) and 2000 ng/mL. Data collection, peak integration and calculations were performed using MassLynx software, version 2.1.

Homo sapiens KMO (HsKMO) = target: T2, Homo sapiens KMO (HsKMO) (Homo sapiens, UniProt O15229); assay: KMO inhibition assay, NADPH oxidation at 340 nm (HsKMO); assay type: biochemical
T2 construct: GST; made in house
T2 sequence (O15229 whole entry): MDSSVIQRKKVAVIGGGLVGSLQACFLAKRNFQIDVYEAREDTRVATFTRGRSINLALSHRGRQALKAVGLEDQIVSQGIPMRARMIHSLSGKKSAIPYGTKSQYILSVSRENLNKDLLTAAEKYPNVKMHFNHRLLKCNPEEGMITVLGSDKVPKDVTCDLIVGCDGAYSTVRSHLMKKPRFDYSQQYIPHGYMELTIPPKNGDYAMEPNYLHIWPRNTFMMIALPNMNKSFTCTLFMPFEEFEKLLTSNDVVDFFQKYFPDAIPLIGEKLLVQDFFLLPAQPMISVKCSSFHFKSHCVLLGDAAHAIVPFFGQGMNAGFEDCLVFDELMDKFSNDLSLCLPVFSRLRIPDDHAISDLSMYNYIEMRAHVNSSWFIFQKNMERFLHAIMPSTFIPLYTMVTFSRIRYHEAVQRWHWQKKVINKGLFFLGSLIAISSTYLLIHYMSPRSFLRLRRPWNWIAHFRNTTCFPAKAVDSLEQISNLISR
Excerpt: as §1, §2
Supplementary Figure 1. Examples of inhibition data used to generate IC50 values for selected KMO inhibitors.
as §3, with “NADPH” for “Supplementary Figure 1. Examples of inhibition data used to generate IC50 values for selected KMO inhibitors. Fixed concentration of L -KYN (200 µM) and NADPH”
as §4, §5, §6, §7
(§8) consumption of NADPH at 340 nm upon addition of enzyme via a Cary 50 UV-Vis spectrophotometer (Agilent Technologies). Rates were determined from linear regression fits to the initial linear portion of the curves. All measurements were performed in triplicate. The IC50 values for inhibitors were obtained by plotting the percentage inhibition versus the inhibitor concentration and fitting to the Morrison equation16 (equation 1) using Origin 9.0 Software (OriginLab, Northampton, MA).
E + I + K!"" − E + I + K!"" ! − 4[E][I] where v0 is the enzyme activity without inhibitor, vi is the enzyme activity with ligand

[3] = Stability in mouse hepatic microsomes; settings: for half-life at 1 µM: mouse, microsomes
Protocol: 3.6.3 Compound stability in mouse hepatic microsomes and rat hepatocytes
A microsomal stability assay was performed as described in the BioFocus Standard
Operating Procedure ADME-SOP-83, using pooled hepatic mouse
Test and control compounds (midazolam,
dextromethorphan), were prepared in DMSO and incubated at an initial concentration
in the presence of the cofactor, NADPH (1 mM). Aliquots were removed at 0, 5, 10,
20 and 40 minutes for termination of reactions and compound extraction with ACN
containing an analytical internal standard. Samples were centrifuged and the
supernatant fractions analysed for parent compound by mass spectrometry (LC-
MS/MS). The amount of compound remaining (expressed as %) was determined from
the MS response in each sample relative to that in the T = 0 samples (normalised for
internal standard). Ln plots of the % remaining were used to determine the half-life
the slope of the Ln % remaining vs time curve. The in vitro intrinsic clearance Clint

PfKMO [4] = target: T3, PfKMO (Pseudomonas fluorescens, UniProt Q84HF5, C252S/C461S); assay: biochemical; settings: for Km: substrates of PfKMO; for Mechanism of inhibition with respect to L-KYN / Mechanism of inhibition with respect to NADPH: PfKMO
T3 construct: made in house; host or cells: E. coli BL21 (DE3)
T3 sequence (Q84HF5 whole entry C252S/C461S): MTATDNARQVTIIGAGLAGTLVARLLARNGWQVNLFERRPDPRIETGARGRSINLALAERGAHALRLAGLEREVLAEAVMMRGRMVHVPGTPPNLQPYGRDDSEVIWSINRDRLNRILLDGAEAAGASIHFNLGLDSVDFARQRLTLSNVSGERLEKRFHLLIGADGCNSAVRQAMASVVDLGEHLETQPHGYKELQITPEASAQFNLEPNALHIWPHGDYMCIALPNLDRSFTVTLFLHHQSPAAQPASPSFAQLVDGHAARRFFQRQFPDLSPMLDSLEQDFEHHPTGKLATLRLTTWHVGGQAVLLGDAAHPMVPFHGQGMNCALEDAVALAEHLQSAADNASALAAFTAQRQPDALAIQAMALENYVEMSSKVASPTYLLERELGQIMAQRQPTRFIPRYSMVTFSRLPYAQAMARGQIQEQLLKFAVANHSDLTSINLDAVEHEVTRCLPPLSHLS
Protocol: saturating concentrations of the L-KYN and NADPH substrates. Data are plotted […]
as §8
E + I + K!"" − E + I + K!"" ! − 4[E][I] where v0 is the enzyme activity without inhibitor, vi is the enzyme activity with ligand concentration [I], [E] is the enzyme concentration, [I] is the inhibitor concentration, K!"" is the apparent inhibition constant and IC = K!"" + [!] . If K!"" ≫ [!], IC ≈ […]
where Ki is the inhibition constant, [S] is the substrate concentration used in the assay and Km is the Michaelis-Menten constant17. […]
between Ki and Ki apparent values, as the conditions for measuring IC50 are different, Ki values can be used to compare with other reported KMO inhibitors.
Steady-state kinetic parameters for PfKMO were calculated by measuring initial rates […]
the observed rate of turnover (v) versus the varied substrate concentration were fitted to equation 2 using Origin 9.0 Software (OriginLab, Northampton, MA).
A B + K!! B + K!! A + K!!K!! where v is the initial rate of activity, Vmax is the maximum velocitie of the reaction, [A] and [B] are the substrate concentration, K!! and K!! are the Michaelis-Menten constant for different substrate and K!! is the inhibition (binding) constant of substrate A to the free enzyme while forming transitory complexes.18
Product inhibition studies were carried out by measuring reaction rates at varying […]
one substrate and varying concentrations of the other substrate. Inhibition studies with target compounds were carried out by measuring reaction rates at varying inhibitor concentrations at saturating concentrations of one substrate and varying concentrations of the other substrate. […]
were used to distinguish between different types of inhibition. The data were fitted to a straight line defined by the Lineweaver-Burke equation (equation 4), with the y intercept providing 1/Vmax and the x intercept giving -1/Km. […]

PfKMO [5] = target: T3, PfKMO; assay: Stopped-flow reduction of flavin cofactor by NADPH; assay type: biochemical; settings: for Reduction rate of flavin cofactor: PfKMO with saturating ligand, 2 mM NADPH, 25 °C, anaerobic; for Stimulation of KMO reduction by NADPH: rapid mixing stopped-flow assays
Protocol: The reduction rate of the flavin cofactor by NADPH was measured using a stopped-flow spectrophotometer (Applied Photophysics Ltd), which was housed in an anaerobic glovebox (Belle Technology). […] The reduction of the flavin was monitored by the decrease in the absorbance of the flavin at 450 nm and transients were fitted to either double or triple exponentials.
Supplementary Figure 13. Reduction of flavin cofactor by NADPH in the presence and absence of ligands. Anaerobic mixtures of 10 µM PfKMO with or without ligand were mixed against anaerobic 2 mM NADPH on a stopped-flow spectrophotometer at 25℃. a, 10 µM PfKMO mixed with 2 mM NADPH; b, 10 µM

[6] = Kinetic solubility in PBS, pH 7.4 (2% DMSO); assay type: physicochemical; settings: PBS with 2% DMSO, pH 7.4, aqueous buffer, kinetic from dmso stock, PBS, pH 7.4 (2% DMSO)
[7] = 1 mg/kg i.v., 5 min, single mice, analyte inhibitor 1 (also after prodrugs) or 1h
[8] = Half-life Mean, mouse hepatic microsomes
[9] = Half-life n=1, mouse hepatic microsomes
[10] = Half-life n=2, mouse hepatic microsomes

T1 sequence (Q84HF5 whole entry C252S/C461S): as above

Cc1cc2c(c(C)c1Cl)N(CC(=O)OC(C)(C)C)C(=O)CO2 [1d]
IC50 [1]: ~200 µM
In blood [2, 7]: ≤ LLoQ
In brain [2, 7]: ≤ LLoQ
In brain ([2]; 1 mg/kg i.v., 60 min, single mice, analyte inhibitor 1 (also after prodrugs) or 1h): ≤ LLoQ
Release of 1 in blood and brain ([2]; prodrug 1 mg/kg i.v. bolus): undetectable
IC50 (Homo sapiens KMO (HsKMO)): > 300 µM

COc1ccc2c(c1)[C@]13CCCC[C@@H]1[C@H](C2)N(C)CC3 [Dextromethorphan, reference compound]
Mean intrinsic clearance ([3]; mouse hepatic microsomes): 97 µL/min/mg microsome protein
half-life at 1 µM [3, 8]: 29 min
half-life at 1 µM [3, 9]: 28 min
half-life at 1 µM [3, 10]: 29 min

Nc1ccccc1C(=O)C[C@H](N)C(=O)O [L-KYN, reference compound]
Km (PfKMO [4]): 12.1 ± 1.4 µM
Reduction rate of flavin cofactor (PfKMO [5]): 339 ± 16.6 s⁻¹

Cc1ncc2n1-c1ccc(Cl)cc1C(c1ccccc1F)=NC2 [Midazolam, reference compound]
Mean intrinsic clearance ([3]; mouse hepatic microsomes): > 554 µL/min/mg microsome protein
half-life at 1 µM [3, 8]: < 5 min
half-life at 1 µM [3, 9]: < 5 min
half-life at 1 µM [3, 10]: < 5 min

NC(=O)C1=CN([C@@H]2O[C@H](COP(=O)(O)OP(=O)(O)OC[C@H]3O[C@@H](n4cnc5c(N)ncnc54)[C@H](OP(=O)(O)O)[C@@H]3O)[C@@H](O)[C@H]2O)C=CC1 [NADPH, reference compound]
Km (PfKMO [4]; read-out: Km): 16.9 ± 1.5 µM

COC(=O)[C@H]1[C@H]2C[C@@H]3c4[nH]c5cc(OC)ccc5c4CCN3C[C@H]2C[C@@H](OC(=O)c2cc(OC)c(OC)c(OC)c2)[C@@H]1OC [Reserpine, reference compound]
solubility at 2 h ([6]; read-out: Solubility Mean): 9 µM (≈ 5.48 µg/mL)
solubility at 2 h ([6]; read-out: Solubility n=1): 9 µM (≈ 5.48 µg/mL)
solubility at 2 h ([6]; read-out: Solubility n=2): 9 µM (≈ 5.48 µg/mL)

Cn1c(C(=O)N[C@@H](C(=O)O)c2ccccc2)cc2cc(Cl)ccc21 [compound 4, (R)-2-(5-chloro-1-methyl-1H-indole-2-carboxamido)-2-phenylacetic acid]
Ki (PfKMO [4]): 3 ± 0.24 µM
Mechanism of inhibition with respect to L-KYN (PfKMO [4]): competitive inhibitor
Mechanism of inhibition with respect to NADPH (PfKMO [4]): mixed type inhibitors
Reduction rate of flavin cofactor (PfKMO [5]): 0.03 ± 0.005 s⁻¹
Stimulation of KMO reduction by NADPH (PfKMO [5]): do not stimulate
IC50 [1]: 59.8 ± 7.14 µM
IC50 (Homo sapiens KMO (HsKMO)): 6.1 µM

O=C(O)c1ccc(-c2cccc(Cl)c2Cl)o1 [compound 9, 5-(2,3-dichlorophenyl) furan-2-carboxylic acid]
Ki (PfKMO [4]): 0.15 ± 0.01 µM
Mechanism of inhibition with respect to L-KYN (PfKMO [4]): competitive inhibitor
Mechanism of inhibition with respect to NADPH (PfKMO [4]): competitive inhibitor
Reduction rate of flavin cofactor (PfKMO [5]): 0.03 ± 0.001 s⁻¹
Stimulation of KMO reduction by NADPH (PfKMO [5]): do not stimulate
IC50 [1]: 4.3 ± 0.2 µM
IC50 (Homo sapiens KMO (HsKMO)): 39.6 µM
